Assay [1] has as its system Escherichia coli. Put plainly: Antibacterial activity against Escherichia coli. The class given is functional.
The test system of assay [2] is Pseudomonas aeruginosa. Put plainly: Antibacterial activity against Pseudomonas aeruginosa. Type of assay: functional.
For assay [3], the system named is Yersinia pseudotuberculosis. Put plainly: Antibacterial activity against Yersinia pseudotuberculosis. The class given is functional.
Assay [4] relates to Staphylococcus aureus. Put plainly: Antibacterial activity against Staphylococcus aureus. Type of assay: functional.
The subject of a further assay is Enterococcus faecalis. Put plainly: Antibacterial activity against Enterococcus faecalis. Type of assay: functional.
In assay [5] the test system is Bacillus cereus. Put plainly: Antibacterial activity against Bacillus cereus. Type of assay: functional.
In assay [6] the test system is Mycolicibacterium smegmatis. Put plainly: Antibacterial activity against Mycobacterium smegmatis. The class given is functional.
Assay [7] concerns Staphylococcus aureus. Put plainly: Antibacterial activity against Staphylococcus aureus after 3 to 7 days by cup diffusion method. The conditions noted are these: Staphylococcus aureus; read-out: MIC. Type of assay: functional.
For assay [8], the system named is Bacillus subtilis. Put plainly: Antibacterial activity against Bacillus subtilis after 3 to 7 days by cup diffusion method. The class given is functional. Particulars: Bacillus subtilis; read-out: MIC.
Assay [9] concerns Escherichia coli. Put plainly: Antibacterial activity against Escherichia coli after 3 to 7 days by cup diffusion method. Type of assay: functional. The conditions noted are these: Escherichia coli; read-out: MIC.
Assay [10] has as its system Pseudomonas aeruginosa. Put plainly: Antibacterial activity against Pseudomonas aeruginosa after 3 to 7 days by cup diffusion method. The class given is functional. Particulars: Pseudomonas aeruginosa; read-out: MIC.
The test system of assay [11] is Mycolicibacterium phlei. Put plainly: Antibacterial activity against Mycobacterium phlei clinical isolate after 3 to 7 days by cup diffusion method. Particulars: Mycolicibacterium phlei; read-out: MIC. The class given is functional.
Assay [12] concerns Aggregatibacter actinomycetemcomitans. Put plainly: Antibacterial activity against Aggregatibacter actinomycetemcomitans ATCC 29524 after 3 to 7 days by cup diffusion method. Type of assay: functional. Particulars: Aggregatibacter actinomycetemcomitans, ATCC 29524; read-out: MIC.
Assay [13] deals with Staphylococcus aureus. Put plainly: Antibacterial activity against Staphylococcus aureus assessed as zone of inhibition at 10 mg/ml after 3 to 7 days by cup diffusion method. Type of assay: functional. Particulars: read-out: IZ.
The test system of assay [14] is Bacillus subtilis. Put plainly: Antibacterial activity against Bacillus subtilis assessed as zone of inhibition at 10 mg/ml after 3 to 7 days by cup diffusion method. The class given is functional. Particulars: read-out: IZ.
Assay [15] relates to Escherichia coli. Put plainly: Antibacterial activity against Escherichia coli assessed as zone of inhibition at 10 mg/ml after 3 to 7 days by cup diffusion method. Type of assay: functional. The conditions noted are these: read-out: IZ.
Assay [16] relates to Pseudomonas aeruginosa. Put plainly: Antibacterial activity against Pseudomonas aeruginosa assessed as zone of inhibition at 10 mg/ml after 3 to 7 days by cup diffusion method. The class given is functional. Particulars: read-out: IZ.
Assay [17] relates to Mycolicibacterium phlei. Put plainly: Antibacterial activity against Mycobacterium phlei clinical isolate assessed as zone of inhibition at 10 mg/ml after 3 to 7 days by cup diffusion method. The class given is functional. The conditions noted are these: read-out: IZ.
Assay [18] concerns Aggregatibacter actinomycetemcomitans. Put plainly: Antibacterial activity against Aggregatibacter actinomycetemcomitans ATCC 29524 assessed as zone of inhibition at 10 mg/ml after 3 to 7 days by cup diffusion method. Type of assay: functional. The conditions noted are these: read-out: IZ.
The target in another assay is DNA gyrase (Escherichia coli, UniProt P0AES4+P0AES6). Put plainly: Inhibition of Escherichia coli DNA gyrase super-coiling activity using pBR322 DNA as substrate after 30 mins by fluorescence assay. Type of assay: protein-complex assay.
The test system of assay [19] is Staphylococcus epidermidis. Put plainly: Antibacterial activity against Staphylococcus epidermidis assessed as zone of inhibition at 100 ug/ml. Particulars: read-out: IZ.
Assay [20] deals with Bacillus cereus. Put plainly: Antibacterial activity against Bacillus cereus assessed as zone of inhibition at 100 ug/ml. Type of assay: functional. The conditions noted are these: read-out: IZ.
Assay [21] relates to Escherichia coli. Put plainly: Antibacterial activity against Escherichia coli assessed as zone of inhibition at 100 ug/ml. Particulars: read-out: IZ.
In assay [22] the test system is Pseudomonas aeruginosa. Put plainly: Antibacterial activity against Pseudomonas aeruginosa assessed as zone of inhibition at 100 ug/ml. The conditions noted are these: read-out: IZ.
Assay [23] relates to Staphylococcus aureus. Put plainly: Antibacterial activity against methicillin-resistant Staphylococcus aureus. Type of assay: functional.
The subject of assay [24] is Escherichia coli. Put plainly: Antibacterial activity against multi drug-resistant Escherichia coli. The class given is functional.
The next assay relates to Aspergillus niger. Put plainly: Antifungal activity against Aspergillus niger assessed as zone of inhibition at 100 ug/ml. The class given is functional. Particulars: read-out: IZ.
The next assay concerns Aspergillus fumigatus. Put plainly: Antifungal activity against Aspergillus fumigatus assessed as zone of inhibition at 100 ug/ml. The class given is functional. Particulars: read-out: IZ.

Converted amounts (≈) assume the structure as drawn.

The source of these data is ChEMBL document CHEMBL4346717, “1,2,4-Triazole-quinoline/quinolone hybrids as potential anti-bacterial agents” (Eur J Med Chem, 2019).

With `CCn1cc(C(=O)O)c(=O)c2cc(F)c(N3CCN(Cn4nc(N5CCN(c6ccc([N+](=O)[O-])cc6)CC5)n(Cc5ccccc5)c4=O)CC3)cc21`, the MIC (in the assay with Escherichia coli [1]; against Pseudomonas aeruginosa [2]; in [3]; against Staphylococcus aureus [4]; in the assay on Enterococcus faecalis; against Bacillus cereus [5]) was 0.03 to 0.99 µg/mL (≈ 0.0421 to 1.39 µM) each time. Moreover, the MIC in [6] was 0.03 to 0.99 µg/mL (≈ 0.0421 to 1.39 µM).

For `CCn1cc(C(=O)O)c(=O)c2cc(F)c(N3CCN(Cn4nc(N5CCN(c6ccc([N+](=O)[O-])cc6)CC5)n(Cc5ccccc5)c4=S)CC3)cc21`, the MIC (in the assay with Escherichia coli [1]; with Pseudomonas aeruginosa [2]; in assay [3]; with Staphylococcus aureus [4]; against Enterococcus faecalis; against Bacillus cereus [5]) was 0.03 to 0.99 µg/mL (≈ 0.0412 to 1.36 µM) throughout. Further, the MIC in assay [6] was 0.03 to 0.99 µg/mL (≈ 0.0412 to 1.36 µM).

In the case of `CCn1cc(C(=O)O)c(=O)c2cc(F)c(N3CCN(Cn4nc(N5CCN(c6ccc([N+](=O)[O-])cc6)CC5)n(-c5ccccc5)c4=O)CC3)cc21`, the MIC (in the assay on Escherichia coli [1]; in the assay with Pseudomonas aeruginosa [2]; in assay [3]; against Staphylococcus aureus [4]; with Enterococcus faecalis; against Bacillus cereus [5]) was 0.03 to 0.99 µg/mL (≈ 0.043 to 1.42 µM) each time. The same compound came in with an MIC in assay [6] of 0.03 to 0.99 µg/mL (≈ 0.043 to 1.42 µM).

With `CCn1cc(C(=O)O)c(=O)c2cc(F)c(N3CCN(Cn4nc(N5CCN(c6ccc([N+](=O)[O-])cc6)CC5)n(-c5ccc(F)cc5)c4=S)CC3)cc21`, the MIC (against Escherichia coli [1]; against Pseudomonas aeruginosa [2]; in assay [3]; with Staphylococcus aureus [4]; in the assay with Enterococcus faecalis; in the assay on Bacillus cereus [5]) was 0.03 to 0.99 µg/mL (≈ 0.041 to 1.35 µM) in each case. For the same compound, in assay [6], the MIC fell in the range of 0.03 to 0.99 µg/mL (≈ 0.041 to 1.35 µM).

With `CCn1c(N2CCN(c3ccc([N+](=O)[O-])cc3)CC2)nn(CN2CCN(c3cc4c(cc3F)c(=O)c(C(=O)O)cn4CC)CC2)c1=S`, the MIC (in the assay on Escherichia coli [1]; against Pseudomonas aeruginosa [2]; in [3]; against Staphylococcus aureus [4]; against Enterococcus faecalis; in the assay on Bacillus cereus [5]) was 0.03 to 0.99 µg/mL (≈ 0.0451 to 1.49 µM) each time. In [6], the MIC lay in the range of 0.03 to 0.99 µg/mL (≈ 0.0451 to 1.49 µM).

As to `CCn1cc(-c2nc(NC(=O)c3ccccc3)n[nH]2)c(=O)c2cc(Br)c(C)nc21`, the MIC (with Staphylococcus aureus [7]; with Bacillus subtilis [8]; in the assay on Escherichia coli [9]; in the assay with Pseudomonas aeruginosa [10]; with Mycolicibacterium phlei [11]; in assay [12]) was 3.68 to 6.3 µM (≈ 1.67 to 2.86 µg/mL) throughout. Moreover, the zone of inhibition at 10000 µg/mL (in the assay with Staphylococcus aureus [13]; in the assay on Bacillus subtilis [14]; in the assay with Escherichia coli [15]; in the assay on Pseudomonas aeruginosa [16]; in the assay with Mycolicibacterium phlei [17]; in [18]) was 20 to 40 mm throughout. Also, inhibition on DNA gyrase was half-maximal at 4.28 µM (IC50).

In the case of `CCn1cc(C(=O)O)c(=O)c2cc(F)c(N3CCN(Cn4nc(N5CCN(c6ccc([N+](=O)[O-])cc6)CC5)n(-c5ccccc5)c4=S)CC3)cc21`, the MIC (in the assay with Escherichia coli [1]; against Pseudomonas aeruginosa [2]; in [3]; against Staphylococcus aureus [4]; against Enterococcus faecalis; against Bacillus cereus [5]) was 0.03 to 0.99 µg/mL (≈ 0.042 to 1.39 µM) throughout. The MIC in assay [6] lay in the range of 0.03 to 0.99 µg/mL (≈ 0.042 to 1.39 µM).

For `CC1(C)S[C@@H]2[C@H](NC(=O)[C@H](N)c3ccccc3)C(=O)N2[C@H]1C(=O)O` [AMPICILLIN], the MIC (against Escherichia coli [1]; in the assay on Pseudomonas aeruginosa [2]; in assay [3]; in the assay on Staphylococcus aureus [4]; with Enterococcus faecalis; against Bacillus cereus [5]) was 10 to 128 µg/mL (≈ 28.6 to 366 µM) each time. This compound showed an MIC in assay [6] of 10 to 128 µg/mL (≈ 28.6 to 366 µM).

On to `O=C(O)c1cn(C2CC2)c2cc(N3CCNCC3)c(F)cc2c1=O` [CIPROFLOXACIN], for which the zone of inhibition at 100 µg/mL (in assay [19]; in the assay on Bacillus cereus [20]; with Escherichia coli [21]; with Pseudomonas aeruginosa [22]) was 23 to 29 mm throughout. For the same compound, the MIC in the assay with Staphylococcus aureus [23] and against Escherichia coli [24] was 0.25 to 8 µg/mL (≈ 0.754 to 24.1 µM) each time.

For `OC(Cn1cncn1)(Cn1cncn1)c1ccc(F)cc1F` [FLUCONAZOLE], the zone of inhibition at 100 µg/mL with Aspergillus niger was determined as 29 mm; in the assay with Aspergillus fumigatus, 26 mm.

For orientation: IC50 means the midpoint of a concentration-inhibition curve. A high value points to weaker potency.
